# Data as given in PubChem BioAssay (NCI).
#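 Five compound concentrations were applied to cells in 96-well plates for 48 hours; endpoints were derived by simple linear interpolation of the resulting dose-response curve. The concentration for 50% growth inhibition is given as GI50. TGI denotes the concentration required for complete inhibition of growth.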
# How the values were obtained:
# Test in all cases: growth of human tumour cells (NCI), 48 h
# [1] = system: IGROV1 ovarian
# [2] = system: SF-295 CNS
# [3] = system: HCC-2998 colon
# [4] = system: SR leukemia
# [5] = system: ACHN renal
# [6] = system: OVCAR-4 ovarian
# [7] = system: K-562 leukemia
# [8] = system: A549 NSCLC
# [9] = system: UO-31 renal
# [10] = system: MDA-MB-231 breast
smiles,measurement,setting,value
Cn1cnc([N+](=O)[O-])c1Sc1nccn1-c1ccccc1,TGI,[1],> 100 µM
same,TGI,[2],> 100 µM
same,TGI,[3],> 100 µM
same,TGI,[4],62.3 µM
same,TGI,[5],> 100 µM
same,TGI,[6],> 100 µM
same,TGI,[7],> 100 µM
same,TGI,[8],> 100 µM
same,TGI,[9],> 100 µM
O=C(O)c1ccc(NCn2nc(-c3ccccc3O)oc2=S)cc1O,GI50,[1],> 100 µM
same,TGI,[1],> 100 µM
same,GI50,[2],> 100 µM
same,TGI,[2],> 100 µM
same,GI50,[3],> 100 µM
same,TGI,[3],> 100 µM
same,GI50,[10],38.9 µM
same,TGI,[10],> 100 µM
same,GI50,[5],31.6 µM
same,TGI,[5],99.1 µM
same,GI50,[7],> 100 µM
same,TGI,[7],> 100 µM
same,GI50,[8],> 100 µM
same,TGI,[8],> 100 µM
same,GI50,[9],> 100 µM
same,TGI,[9],> 100 µM
COC1OC(CO)C(O)C(NC(=O)N(C)N=O)C1O (stereo unspecified),TGI,[1],> 100 µM
same,TGI,[2],> 100 µM
same,TGI,[3],> 100 µM
same,TGI,[4],> 100 µM
same,TGI,[5],> 100 µM
same,TGI,[6],> 100 µM
same,TGI,[7],> 100 µM
same,TGI,[8],> 100 µM
same,TGI,[9],> 100 µM
CN1C(=O)CNS1(=O)=O,TGI,[1],> 100 µM
same,TGI,[2],> 100 µM
same,TGI,[3],> 100 µM
same,TGI,[4],> 100 µM
same,TGI,[5],> 100 µM
same,TGI,[7],> 100 µM
same,TGI,[8],> 100 µM
same,TGI,[9],> 100 µM
CCOc1ccc(N=C2NC(=O)C(CC(=O)Nc3ccc(Cl)cc3Cl)S2)cc1 (stereo unspecified),TGI,[1],> 100 µM
same,TGI,[2],> 100 µM
same,TGI,[3],> 100 µM
same,TGI,[5],> 100 µM
same,TGI,[6],> 100 µM
same,TGI,[7],> 100 µM
same,TGI,[8],> 100 µM
same,TGI,[9],> 100 µM
CC[C@H]1[C@@H](C)C=C[C@@H](C)N1S(=O)(=O)c1ccc(C)cc1,TGI,[2],> 100 µM
same,TGI,[4],> 100 µM
same,TGI,[5],> 100 µM
same,TGI,[6],> 100 µM
same,TGI,[7],> 100 µM
same,TGI,[8],> 100 µM
same,TGI,[9],27.5 µM
O=C(Cc1c(C(=O)Nc2ccccc2)sc(C(=O)Nc2ccccc2)c1CC(=O)Nc1ccccc1)Nc1ccccc1,TGI,[1],> 100 µM
same,TGI,[2],> 100 µM
same,TGI,[3],> 100 µM
same,TGI,[5],> 100 µM
same,TGI,[6],> 100 µM
same,TGI,[7],> 100 µM
same,TGI,[8],> 100 µM
same,TGI,[9],> 100 µM
CC1OC(n2ccc3ccc([N+](=O)[O-])cc32)C(O)C(O)C1O (stereo unspecified),TGI,[1],> 100 µM
same,TGI,[2],> 100 µM
same,TGI,[4],> 100 µM
same,TGI,[5],> 100 µM
same,TGI,[6],> 100 µM
same,TGI,[7],> 100 µM
same,TGI,[8],> 100 µM
same,TGI,[9],> 100 µM
C=CCC1=C2CCCCC2CCC1=O (stereo unspecified),TGI,[1],> 100 µM
same,TGI,[2],> 100 µM
same,TGI,[5],> 100 µM
same,TGI,[6],> 100 µM
same,TGI,[7],> 100 µM
same,TGI,[8],> 100 µM
same,TGI,[9],> 100 µM
OCC(O)COc1ccc(F)cc1 (stereo unspecified),TGI,[1],> 100 µM
same,TGI,[2],> 100 µM
same,TGI,[3],> 100 µM
same,TGI,[4],> 100 µM
same,TGI,[5],> 100 µM
same,TGI,[6],> 100 µM
same,TGI,[7],> 100 µM
same,TGI,[8],> 100 µM
same,TGI,[9],> 100 µM
Cc1cc2c(=O)cc(-c3ccc(Cl)cc3Cl)oc2c(C(=O)O)c1C,TGI,[1],> 100 µM
same,TGI,[2],> 100 µM
same,TGI,[5],> 100 µM
same,TGI,[6],> 100 µM
same,TGI,[7],> 100 µM
same,TGI,[8],> 100 µM
same,TGI,[9],> 100 µM
CC1=CC=C2C(C)(C)CC[C@@H]3OC(=O)[C@H]1[C@]23C,TGI,[1],> 100 µM
same,TGI,[2],> 100 µM
same,TGI,[3],> 100 µM
same,TGI,[4],> 100 µM
same,TGI,[5],> 100 µM
same,TGI,[6],> 100 µM
same,TGI,[7],> 100 µM
same,TGI,[8],> 100 µM
same,TGI,[9],> 100 µM
NC(=S)N/N=C/c1cn(CCCl)c2ccccc12,TGI,[1],> 100 µM
same,TGI,[2],> 100 µM
same,TGI,[4],> 100 µM
same,TGI,[7],> 100 µM
same,TGI,[8],> 100 µM
same,TGI,[9],> 100 µM
COC(=O)c1oc([N+](=O)[O-])c(-c2ccccc2)c1-c1ccccc1,TGI,[1],> 100 µM
same,TGI,[2],> 100 µM
same,TGI,[3],> 100 µM
same,TGI,[5],> 100 µM
same,TGI,[6],> 100 µM
same,TGI,[7],> 100 µM
same,TGI,[8],> 100 µM
same,TGI,[9],> 100 µM
CCCCN(CCCC)C(=O)C(=O)C(C(=O)C(=O)OC)c1nc2ccccc2o1 (stereo unspecified),TGI,[1],> 100 µM
same,TGI,[2],> 100 µM
same,TGI,[3],> 100 µM
same,TGI,[4],> 100 µM
same,TGI,[5],> 100 µM
same,TGI,[6],> 100 µM
same,TGI,[7],> 100 µM
same,TGI,[8],> 100 µM
same,TGI,[9],> 100 µM
O=C(O)COc1ccc2c3c1C(=O)CCC3CO2 (stereo unspecified),TGI,[1],> 100 µM
same,TGI,[2],> 100 µM
same,TGI,[3],> 100 µM
same,TGI,[5],> 100 µM
same,TGI,[6],> 100 µM
same,TGI,[7],> 100 µM
same,TGI,[8],> 100 µM
same,TGI,[9],> 100 µM
Cc1cc2c(=O)cc(-c3ccc(C(=O)O)cc3)oc2c(C(N)=O)c1C,TGI,[1],> 100 µM
same,TGI,[2],> 100 µM
same,TGI,[3],> 100 µM
same,TGI,[5],> 100 µM
same,TGI,[6],> 100 µM
same,TGI,[7],> 100 µM
same,TGI,[8],> 100 µM
same,TGI,[9],> 100 µM
O=[N+]([O-])c1cccc(C=NC23CC4CC(CC(C4)C2)C3)c1,TGI,[1],> 100 µM
same,TGI,[2],> 100 µM
same,TGI,[3],> 100 µM
same,TGI,[5],> 100 µM
same,TGI,[6],> 100 µM
same,TGI,[7],> 100 µM
same,TGI,[8],> 100 µM
same,TGI,[9],> 100 µM
COC(=O)CCC(=O)C(CC(=O)OC)C(=O)CCC(=O)NCCc1ccccc1 (stereo unspecified),TGI,[1],> 100 µM
same,TGI,[2],> 100 µM
same,TGI,[3],> 100 µM
same,TGI,[4],> 100 µM
same,TGI,[5],> 100 µM
same,TGI,[6],> 100 µM
same,TGI,[7],> 100 µM
same,TGI,[8],> 100 µM
same,TGI,[9],> 100 µM
CCOC(=O)c1sc(Nc2cc(Cl)ccc2Cl)nc1C,TGI,[1],> 100 µM
same,TGI,[2],> 100 µM
same,TGI,[3],> 100 µM
same,TGI,[4],> 100 µM
same,TGI,[5],> 100 µM
same,TGI,[6],> 100 µM
same,TGI,[7],> 100 µM
same,TGI,[8],> 100 µM
same,TGI,[9],> 100 µM
CC(=O)Nc1ccc(S(=O)(=O)N/N=C/c2cc(I)cc([N+](=O)[O-])c2O)cc1,TGI,[1],> 100 µM
same,TGI,[2],> 100 µM
same,TGI,[3],> 100 µM
same,TGI,[5],> 100 µM
same,TGI,[6],> 100 µM
same,TGI,[7],> 100 µM
same,TGI,[8],> 100 µM
same,TGI,[9],> 100 µM
CNC(=O)N(CCCC(NC(C)=O)C(=O)NCc1ccccc1)Cc1ccccc1 (stereo unspecified),TGI,[1],> 100 µM
same,TGI,[2],> 100 µM
same,TGI,[3],> 100 µM
same,TGI,[5],> 100 µM
same,TGI,[6],> 100 µM
same,TGI,[7],> 100 µM
same,TGI,[8],> 100 µM
same,TGI,[9],> 100 µM
O=C([CH-]C(=O)c1ccccc1)c1ccccc1.O=C([CH-]C(=O)c1ccccc1)c1ccccc1.[CH2-]CCC.[CH2-]CCC.[Sn+4],GI50,[1],1.21 µM
same,TGI,[1],2.79 µM
same,GI50,[2],1.12 µM
same,TGI,[2],2.35 µM
same,GI50,[3],0.519 µM
same,TGI,[3],1.92 µM
same,GI50,[5],0.457 µM
same,TGI,[5],1.6 µM
same,GI50,[7],0.15 µM
same,TGI,[7],0.746 µM
same,GI50,[8],1.82 µM
same,TGI,[8],4.12 µM
same,GI50,[9],1.08 µM
same,TGI,[9],2.29 µM
c1ccc2c(CNCCCN3CCN(CCCNCc4cccc5ccccc45)CC3)cccc2c1,TGI,[1],10.1 µM
same,TGI,[2],3.28 µM
same,TGI,[5],6.85 µM
same,TGI,[6],5 µM
same,TGI,[8],4.25 µM
same,TGI,[9],3.22 µM
